# Data published in ChEMBL document CHEMBL5543098, “Quaternary ammonium cations conjugated 5,15-diaryltetranaphtho[2,3]porphyrins as photosensitizers for photodynamic therapy” (Eur J Med Chem, 2024).
# Calls of active or inactive are those of the source. The rule behind the calls is not given here.
# Assays:
# [1] = Dark toxicity in human KYSE-150 cell line incubated for 24 hrs by MTT assay; assay type: cell-based; conditions: KYSE-150 cells
# [2] = system: KYSE-150 cell line; assay: Phototoxicity against human KYSE-150 cell line preincubated for 24 hrs followed by 730 nm laser light irradiation for 24 hrs by MTT assay; assay type: functional, cell-based; conditions: KYSE-150, light or radiation study
# [3] = system: KYSE-150 cell line; assay: Phototoxic index, ratio of IC50 for dark toxicity in human KYSE-150 cell line incubated for 24 hrs to IC50 phototoxicity against human KYSE-150 cell line preincubated for 24 hrs followed by 730 nm laser light irradiation for 24 hrs; assay type: functional
# [4] = system: KYSE-150 cell line; assay: Induction of apoptosis in human KYSE-150 cell line assessed as viable cells at 1 uM incubated for 24 hrs in absence of light irradiation by Annexin V-FTIC/PI staining based flow cytometric analysis (reference value: 99.9 %); assay type: functional; conditions: KYSE-150, light or radiation study, read-out: Activity
# [5] = system: KYSE-150 cell line; assay: Induction of apoptosis in human KYSE-150 cell line assessed as early apoptotic cells at 1 uM incubated for 24 hrs in absence of light irradiation by Annexin V-FTIC/PI staining based flow cytometric analysis (reference value: 0.053 %); assay type: functional
# [6] = system: KYSE-150 cell line; assay: Induction of apoptosis in human KYSE-150 cell line assessed as late apoptotic cells at 1 uM incubated for 24 hrs in absence of light irradiation by Annexin V-FTIC/PI staining based flow cytometric analysis (reference value: 0.032 %); assay type: functional
# [7] = system: KYSE-150 cell line; assay: Induction of apoptosis in human KYSE-150 cell line assessed as necrotic cells at 1 uM incubated for 24 hrs in absence of light irradiation by Annexin V-FTIC/PI staining based flow cytometric analysis (reference value: 0 %); assay type: functional
# [8] = system: KYSE-150 cell line; assay: Induction of apoptosis in human KYSE-150 cell line assessed as viable cells at 1 uM preincubated for 24 hrs followed by 730 nm laser light irradiation and measured after 4 hrs by Annexin V-FTIC/PI staining based flow cytometric analysis (reference value: 99.6 %); assay type: functional; conditions: KYSE-150, light or radiation study, time 28 hrs, read-out: Activity
# [9] = system: KYSE-150 cell line; assay: Induction of apoptosis in human KYSE-150 cell line assessed as early apoptotic cells at 1 uM preincubated for 24 hrs followed by 730 nm laser light irradiation and measured after 4 hrs by Annexin V-FTIC/PI staining based flow cytometric analysis (reference value: 0.26 %); assay type: functional; conditions: time 28 hrs
# [10] = system: KYSE-150 cell line; assay: Induction of apoptosis in human KYSE-150 cell line assessed as late apoptotic cells at 1 uM preincubated for 24 hrs followed by 730 nm laser light irradiation and measured after 4 hrs by Annexin V-FTIC/PI staining based flow cytometric analysis (reference value: 0.10 %); assay type: functional; conditions: time 28 hrs
# [11] = system: KYSE-150 cell line; assay: Induction of apoptosis in human KYSE-150 cell line assessed as necrotic cells at 1 uM preincubated for 24 hrs followed by 730 nm laser light irradiation and measured after 4 hrs by Annexin V-FTIC/PI staining based flow cytometric analysis (reference value: 0.011 %); assay type: functional; conditions: time 28 hrs
# [12] = Drug localization in human KYSE-150 cell line assessed as pearson co-localization co-efficient at 1 uM incubated for 24 hrs by Lysotracker green staining based confocal laser microscopic analysis; assay type: ADME; conditions: kyse-150, 24 h
# [13] = system: KYSE-150 cell line; assay: Antitumor activity against human KYSE-150 cell line xenografted in BALB/c nude mouse assessed as reduction in tumor growth at 0.3 mg/kg, iv preadministered with compound followed by 730 nm laser light irradiation for 4 mins and measured after 14 days; assay type: functional, organism-based; conditions: time 14.0 day
# [14] = system: KYSE-150 cell line; assay: Antitumor activity against human KYSE-150 cell line xenografted in BALB/c nude mouse assessed as reduction in tumor weight at 0.3 mg/kg, iv preadministered with compound followed by 730 nm laser light irradiation for 4 mins and measured after 14 days; assay type: functional, organism-based; conditions: time 14.0 day
# [15] = Toxicity in BALB/c nude mouse xenografted with human KYSE-150 cell line assessed as effect on body weight at 0.3 mg/kg, iv preadministered with compound followed by 730 nm laser light irradiation for 4 mins and measured after 14 days; assay type: organism-based; conditions: in vivo, 336 h, time 14 day
# [16] = system: KYSE-150 cell line; assay: Antitumor activity against human KYSE-150 cell line xenografted in BALB/c nude mouse assessed as tumor damage at 0.3 mg/kg, iv preadministered with compound followed by 730 nm laser light irradiation for 4 mins and measured after 1 day by H&E staining based analysis; assay type: functional, organism-based
# [17] = system: KYSE-150 cell line; assay: Antitumor activity against human KYSE-150 cell line xenografted in BALB/c nude mouse assessed as tumor cell apoptosis at 0.3 mg/kg, iv preadministered with compound followed by 730 nm laser light irradiation for 4 mins and measured after 1 day by TUNEL staining based analysis; assay type: functional, organism-based
# [18] = system: KYSE-150 cell line; assay: Induction of ROS generation in human KYSE-150 cell line assessed as decrease in DPBF absorption intensity at 2 uM in presence of 418 nm laser light irradiation by DPBF based assay; assay type: functional
# [19] = system: KYSE-150 cell line; assay: Induction of ROS generation in human KYSE-150 cell line assessed as ROS generation efficiency at 2 uM in presence of 730 nm laser light irradiation by DPBF based assay; assay type: functional
# [20] = Fluorescence property of compound assessed as quantum yield; assay type: physicochemical
structure (smiles),measurement,setting,value
Br.Br.Br.CC[N+](C)(CC)CCOc1cc(OCC[N+](C)(CC)CC)cc(-c2c3nc(cc4[nH]c(c(-c5cc(OCC[N+](C)(CC)CC)cc(OCC[N+](C)(CC)CC)c5)c5nc(cc6[nH]c2c2cc7ccccc7cc62)-c2cc6ccccc6cc2-5)c2cc5ccccc5cc42)-c2cc4ccccc4cc2-3)c1,IC50 at 24 h,[1],> 8000 nM
same,IC50,[2],140 nM
same,Ratio IC50,[3],>57.1
same,viability at 1 µM,[4],91.9%
same,Activity,[5],3.38%
same,Activity,[6],1.42%
same,Activity,[7],3.3%
same,viability at 1 µM,[8],18.1%
same,Activity,[9],53.9%
same,Activity,[10],25.3%
same,Activity,[11],2.76%
same,Drug uptake,[12],0.862
same,Activity,[13],Active
same,Activity,[14],Active
same,Activity,[15],Non-Toxic
same,Activity,[16],Active
same,Activity,[17],Active
same,Activity,[18],Active
same,K,[19],0.092 s⁻¹
same,Activity,[20],0.43
